{"source": "paper PMC4040332", "about": "(ChemMedChem, 2013)", "key": {"[1]": {"test_system": "GR from F. tularensis (MurI)", "type": "biochemical", "conditions": "Figure 1"}, "B. subtilis DB104": {"test_system": "B. subtilis DB104", "experiment": "Inhibition of bacterial growth", "conditions": "Bacillus subtilis, DB104, 24 h, read-out: MIC50 B. subtilis"}, "GR from B. subtilis": {"target": "GR from B. subtilis (Bacillus subtilis, UniProt P94556)", "sequence (P94556 whole entry)": "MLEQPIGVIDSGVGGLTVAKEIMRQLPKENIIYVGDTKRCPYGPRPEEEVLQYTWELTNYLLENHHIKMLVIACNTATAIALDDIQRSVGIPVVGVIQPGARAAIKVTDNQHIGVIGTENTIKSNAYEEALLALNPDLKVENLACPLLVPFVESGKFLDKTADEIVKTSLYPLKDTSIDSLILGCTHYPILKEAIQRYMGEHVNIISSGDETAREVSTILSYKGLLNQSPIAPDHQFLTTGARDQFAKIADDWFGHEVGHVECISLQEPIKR"}, "[2]": {"test_system": "GR from B. anthracis (RacE1)", "type": "biochemical", "conditions": "RacE1, Figure 1"}, "[3]": {"test_system": "GR from B. anthracis (RacE2)", "type": "biochemical", "conditions": "RacE2, Figure 1"}}, "data": [{"compound": "O=S(=O)(O)c1nc2ccccc2[nH]1", "note": "[Compound 2, 1H-benzimidazole-2-sulfonic acid]", "values": [{"measurement": "potency compared with GR from B. subtilis", "setting": "[1]", "value": "equal potency"}, {"measurement": "MIC50", "setting": "B. subtilis DB104", "value": "720 ± 60", "unit": "µg/mL"}, {"measurement": "LE (ligand efficiency)", "setting": "GR from B. subtilis; Ki converted to binding energy, divided by number of non-hydrogen atoms", "value": 0.53, "unit": "kcal/mol/atom"}, {"measurement": "LiPE (lipophilic efficiency)", "setting": "GR from B. subtilis; from log(Ki) and logP calculated with MarvinSketch", "value": 5.3}, {"measurement": "potency compared with GR from B. subtilis", "setting": "[2]", "value": "equal potency"}, {"measurement": "potency compared with GR from B. subtilis", "setting": "[3]", "value": "equal potency"}]}]}
